Reference: patent US20260317320A1, “C5AR1 ANTAGONISTS AND USES THEREOF” (Vanqua Bio, Inc., priority 2022, published 2026)
Read-outs that look alike come from different tables or passages of the source.

Target: T1, complement C5a receptor 1 (C5aR1) (Homo sapiens, UniProt P21730)
T1 construct: β-galactosidase fragment (PathHunter enzyme complementation); host or cells: CHO-K1 (PathHunter CHO-K1 C5aR1 β-arrestin cell line)
T1 sequence (P21730 1-350): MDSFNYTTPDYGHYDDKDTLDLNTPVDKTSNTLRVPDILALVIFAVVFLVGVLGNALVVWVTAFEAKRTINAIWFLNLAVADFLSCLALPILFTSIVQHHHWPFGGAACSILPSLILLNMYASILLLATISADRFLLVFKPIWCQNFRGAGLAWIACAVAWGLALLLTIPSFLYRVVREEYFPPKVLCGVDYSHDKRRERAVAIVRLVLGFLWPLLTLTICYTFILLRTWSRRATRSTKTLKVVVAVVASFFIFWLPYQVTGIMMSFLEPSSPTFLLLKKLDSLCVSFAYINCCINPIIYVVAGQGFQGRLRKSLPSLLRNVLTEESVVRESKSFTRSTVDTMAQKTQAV
Assay: β-arrestin recruitment via C5aR1 activation in live CHO-K1 cells (PathHunter), antagonist mode
Format: cell-based
Description: Exemplary compounds were evaluated for classical GPCR β-arrestin recruitment via complement C5a receptor 1 (C5aR1) activation in live CHO-K1 cells. This cell line expresses two fragments of the […] protein coupled to β-arrestin and C5aR1. Complementation of the two fragments allows for the assessment of both C5aR1 agonism and antagonism. Recombinant hC5a (EC90) was used as the competing natural agonist against disclosed compounds (more information on the expanded protocol and cell line can be found on the manufacturer's website: PathHunter® CHO-K1 C5aR1 β-arrestin cell line, DiscoverX, Catalog No. 93-0557C2). […] IC50 ranges: A: IC50≤500 nM; B: 500 nM<IC50≤5 uM; C: 5 uM<IC50≤100 uM; D: IC50>100 uM.

[1] = antagonist mode, recombinant hC5a (EC90) as competing natural agonist, live CHO-K1 cells, read-out: [Antagonist] B-arrestin2 recruitment: Average IC50

| SMILES | IC50 [1] [nM] | IC50 [nM] |
| --- | --- | --- |
| Cc1cnc2cc([C@H]3CC[C@@H](c4c(C)cccc4F)CC3)c(=O)n(Cc3nccnc3C(F)(F)F)c2n1 [99a, 7-(cis-4-(2-Fluoro-6-methylphenyl)cyclohexyl)-3-methyl-5-((3-(trifluoromethyl)pyrazin-2-yl)methyl)pyrido[2,3-b]pyrazin-6(5H)-one] | 500 to 5000 | – |
| Cc1cnc2cc([C@H]3CC[C@H](c4c(C)cccc4F)CC3)c(=O)n(Cc3nccnc3C(F)(F)F)c2n1 [99b, 7-(trans-4-(2-Fluoro-6-methylphenyl)cyclohexyl)-3-methyl-5-((3-(trifluoromethyl)pyrazin-2-yl)methyl)pyrido[2,3-b]pyrazin-6(5H)-one] | < 500 | – |
| Cc1cnc2cc([C@H]3CC[C@H](c4c(C)cccc4F)CC3)c(=O)n(Cc3ncccc3C(F)(F)F)c2n1 [121a, 7-(trans-4-(2-Fluoro-6-methylphenyl)cyclohexyl)-3-methyl-5-((3-(trifluoromethyl)pyridin-2-yl)methyl)pyrido[2,3-b]pyrazin-6(5H)-one] | < 500 | – |
| Cc1cnc2cc([C@H]3CC[C@@H](c4c(C)cccc4F)CC3)c(=O)n(Cc3ncccc3C(F)(F)F)c2n1 [121b, 7-(cis-4-(2-Fluoro-6-methylphenyl)cyclohexyl)-3-methyl-5-((3-(trifluoromethyl)pyridin-2-yl)methyl)pyrido[2,3-b]pyrazin-6(5H)-one] | 500 to 5000 | – |
| Cc1cccc(F)c1N1CCC(c2cc3nccnc3n(Cc3ccccc3C(F)(F)F)c2=O)CC1 [compound 1, 7-(1-(2-Fluoro-6-methylphenyl)piperidin-4-yl)-5-(2-(trifluoromethyl)benzyl)pyrido[2,3-b]pyrazin-6(5H)-one] | < 500 | – |
| Cc1cnc2cc(C3CCN(c4c(C)cccc4F)CC3)c(=O)n(Cc3ccccc3OC(F)F)c2n1 [compound 74, 5-(2-(Difluoromethoxy)benzyl)-7-(1-(2-fluoro-6-methylphenyl)piperidin-4-yl)-3-methylpyrido[2,3-b]pyrazin-6(5H)-one] | 500 to 5000 | – |
| Cc1cnc2c(C)c(C3CCN(c4c(C)cccc4F)CC3)c(=O)n(Cc3ncccc3C(F)(F)F)c2n1 [compound 75, 7-(1-(2-Fluoro-6-methylphenyl)piperidin-4-yl)-3,8-dimethyl-5-((3-(trifluoromethyl)pyridin-2-yl)methyl)pyrido[2,3-b]pyrazin-6(5H)-one] | 500 to 5000 | – |
| COc1cnc2cc(C3CCN(c4c(C)cccc4F)CC3)c(=O)n(Cc3nccnc3C(F)(F)F)c2n1 [compound 76, 7-(1-(2-Fluoro-6-methylphenyl)piperidin-4-yl)-3-methoxy-5-((3-(trifluoromethyl)pyrazin-2-yl)methyl)pyrido[2,3-b]pyrazin-6(5H)-one] | 500 to 5000 | – |
| Cc1c(C2CCN(c3ccccc3C(F)(F)F)CC2)c(=O)n(Cc2nccnc2F)c2nccnc12 [compound 77, 5-((3-Fluoropyrazin-2-yl)methyl)-8-methyl-7-(1-(2-(trifluoromethyl)phenyl)piperidin-4-yl)pyrido[2,3-b]pyrazin-6(5H)-one] | 500 to 5000 | – |
| Cc1cnc2cc(C3CCN(c4c(C)cccc4F)CC3)c(=O)n(Cc3ccccc3OC(F)(F)F)c2n1 [compound 78, 7-(1-(2-Fluoro-6-methylphenyl)piperidin-4-yl)-3-methyl-5-(2-(trifluoromethoxy)benzyl)pyrido[2,3-b]pyrazin-6(5H)-one] | 500 to 5000 | – |
| COc1ccnc(F)c1N1CCC(c2cc3nccnc3n(Cc3ncccc3C(F)(F)F)c2=O)CC1 [compound 79, 7-(1-(2-Fluoro-4-methoxypyridin-3-yl)piperidin-4-yl)-5-((3-(trifluoromethyl)pyridin-2-yl)methyl)pyrido[2,3-b]pyrazin-6(5H)-one] | 500 to 5000 | – |
| COc1ccnc(F)c1N1CCC(c2cc3ncc(C)nc3n(Cc3nccnc3C(F)(F)F)c2=O)CC1 [compound 80, 7-(1-(2-Fluoro-4-methoxypyridin-3-yl)piperidin-4-yl)-3-methyl-5-((3-(trifluoromethyl)pyrazin-2-yl)methyl)pyrido[2,3-b]pyrazin-6(5H)-one] | 500 to 5000 | – |
| Cc1ncc2cc(C3CCN(c4c(C)cccc4F)CC3)c(=O)n(Cc3ncccc3C(F)(F)F)c2n1 [compound 81, 6-(1-(2-fluoro-6-methylphenyl)piperidin-4-yl)-2-methyl-8-((3-(trifluoromethyl)pyridin-2-yl)methyl)pyrido[2,3-d]pyrimidin-7(8H)-one] | < 500 | – |
| Cc1cccc(F)c1N1CCC(c2cc3ncncc3n(Cc3nccnc3C(F)(F)F)c2=O)CC1 [compound 82, 7-(1-(2-Fluoro-6-methylphenyl)piperidin-4-yl)-5-((3-(trifluoromethyl)pyrazin-2-yl)methyl)pyrido[3,2-d]pyrimidin-6(5H)-one] | > 100000 | – |
| Cc1c(C2CCN(c3ccccc3C(F)(F)F)CC2)c(=O)n(Cc2ncccc2F)c2nccnc12 [compound 83, 5-((3-Fluoropyridin-2-yl)methyl)-8-methyl-7-(1-(2-(trifluoromethyl)phenyl)piperidin-4-yl)pyrido[2,3-b]pyrazin-6(5H)-one] | < 500 | – |
| Cc1cccc(F)c1N1CCC(c2cc3ncncc3n(Cc3ncccc3C(F)(F)F)c2=O)CC1 [compound 84, 7-(1-(2-Fluoro-6-methylphenyl)piperidin-4-yl)-5-((3-(trifluoromethyl)pyridin-2-yl)methyl)pyrido[3,2-d]pyrimidin-6(5H)-one] | > 100000 | – |
| COc1ccnc(F)c1N1CCC(c2cc3ncc(C)nc3n(Cc3ncccc3C(F)(F)F)c2=O)CC1 [compound 85, 7-(1-(2-Fluoro-4-methoxypyridin-3-yl)piperidin-4-yl)-3-methyl-5-((3-(trifluoromethyl)pyridin-2-yl)methyl)pyrido[2,3-b]pyrazin-6(5H)-one] | < 500 | – |
| Cc1cnc2cc(C3CCN(c4c(C)cccc4F)CC3)c(=O)n(Cc3ncccc3C(F)(F)F)c2c1 [compound 90, 3-(1-(2-Fluoro-6-methylphenyl)piperidin-4-yl)-7-methyl-1-((3-(trifluoromethyl)pyridin-2-yl)methyl)-1,5-naphthyridin-2(1H)-one] | 5000 to 100000 | – |
| Cc1cccc(F)c1C1CCN(c2cc3nccnc3n(Cc3ncccc3C(F)(F)F)c2=O)CC1 [compound 91, 7-(4-(2-fluoro-6-methylphenyl)piperidin-1-yl)-5-((3-(trifluoromethyl)pyridin-2-yl)methyl) pyrido[2,3-b]pyrazin-6(5H)-one] | 500 to 5000 | – |
| Cc1cnc2cc(N3CCN(c4c(C)cccc4F)CC3)c(=O)n(Cc3nccnc3C(F)(F)F)c2n1 [compound 92, 7-(4-(2-Fluoro-6-methylphenyl)piperazin-1-yl)-3-methyl-5-((3-(trifluoromethyl)pyrazin-2-yl)methyl)pyrido[2,3-b]pyrazin-6(5H)-one] | < 500 | – |
| COc1ncnc2cc(C3CCN(c4c(C)cccc4F)CC3)c(=O)n(Cc3nccnc3C(F)(F)F)c12 [compound 93, 7-(1-(2-Fluoro-6-methylphenyl)piperidin-4-yl)-4-methoxy-5-((3-(trifluoromethyl)pyrazin-2-yl)methyl)pyrido[3,2-d]pyrimidin-6(5H)-one] | > 100000 | – |
| Cc1ccc2cc(C3CCN(c4c(C)cccc4F)CC3)c(=O)n(Cc3ncccc3C(F)(F)F)c2n1 [compound 94, 3-(1-(2-Fluoro-6-methylphenyl)piperidin-4-yl)-7-methyl-1-((3-(trifluoromethyl)pyridin-2-yl)methyl)-1,8-naphthyridin-2(1H)-one] | < 500 | – |
| Cc1cnc2cc(N3CCC(c4c(C)cccc4F)CC3)c(=O)n(Cc3nccnc3C(F)(F)F)c2n1 [compound 95, 7-(4-(2-Fluoro-6-methylphenyl)piperidin-1-yl)-3-methyl-5-((3-(trifluoromethyl)pyrazin-2-yl)methyl)pyrido[2,3-b]pyrazin-6(5H)-one] | 500 to 5000 | – |
| Cc1cccc(F)c1N1CCN(c2cc3nccnc3n(Cc3ncccc3C(F)(F)F)c2=O)CC1 [compound 96, 7-(4-(2-Fluoro-6-methylphenyl)piperazin-1-yl)-5-((3-(trifluoromethyl)pyridin-2-yl)methyl)pyrido[2,3-b]pyrazin-6(5H)-one] | < 500 | – |
| Cc1cccc(F)c1N1CCN(c2c(C)c3nccnc3n(Cc3nccnc3C(F)(F)F)c2=O)CC1 [compound 97, 7-(4-(2-Fluoro-6-methylphenyl)piperazin-1-yl)-8-methyl-5-((3-(trifluoromethyl)pyrazin-2-yl)methyl)pyrido[2,3-b]pyrazin-6(5H)-one] | 500 to 5000 | – |
| Cc1cccc(F)c1N1CCC(c2cc3nccnc3n(Cc3ncccc3OC(F)F)c2=O)CC1 [compound 98, 5-((3-(Difluoromethoxy)pyridin-2-yl)methyl)-7-(1-(2-fluoro-6-methylphenyl)piperidin-4-yl)pyrido[2,3-b]pyrazin-6(5H)-one] | < 500 | – |
| Cc1cnc2cc(C3CCN(c4c(C)cccc4F)CC3)c(=O)n(Cc3cccnc3OC(F)(F)F)c2n1 [compound 100, 7-(1-(2-Fluoro-6-methylphenyl)piperidin-4-yl)-3-methyl-5-((2-(trifluoromethoxy)pyridin-3-yl)methyl)pyrido[2,3-b]pyrazin-6(5H)-one] | – | < 500 |
